These results are taken from patent US7745390B2, “Antimicrobial peptides” (priority 2005, dated 2010).

Common to all, as to type: cell-based
One experiment relates to bacteria. Description: Activity in DMEM and RPMI media (lysis of bacteria). As to conditions: either 10 mM phosphate buffer or DMEM. The method, then: The CFU assay is the “gold standard” for evaluating antibiotics. Briefly, bacteria are grown overnight in rich medium, such as LB, and then diluted and grown in log phase for 2-4 hours. Cultures are set up as above, with the initial culture media being 10 mM phosphate buffer/0.03% LB; DMEM or RPMI; or DMEM or RPMI plus 10% serum (fetal calf, human, or mouse). After various periods of time, but generally 3 hours or less, aliquots are removed, diluted in LB at various dilutions, and plated on LB agar plates. Plates are incubated overnight at 37° C. and counted on an automatic colony counter.
In the column “Active in DMEM”, a blank means no activity. MAP stands for multiple antigenic peptide, where a number of identical peptide chains are synthesized and joined to a common core (like a dendrimer).
The peptides listed in Table 2 were tested in DMEM and RPMI, media that approximate blood and tissue conditions in vivo and those that were active under these conditions are listed in the last column (active in DMEM). […] No peptides that were all L-isomer peptides lysed bacteria in DMEM supplemented with serum.
The hydrophobic moment is a measure of amphipathicity and indicates how well the hydrophobic residues fall on one side of the helix while the hydrophilic residues fall on the opposite side is shown in column 7. This was determined using the Membrane Explorer Program (http://blanco.biomol.uci.edu/mpex/). A high number indicates a high hydrophobic moment. Column 8 again (like Table 2) indicates which of these peptides is active in DMEM.

The test system of experiment [1] is antibiotic resistant bacteria obtained from clinical isolates. Description: Susceptibility of antibiotic resistant clinical isolates in DMEM with or without serum. As to the method: In addition to the data given above, the susceptibility of a panel of antibiotic resistant bacteria obtained from clinical isolates was tested. All of these are killed by the G11.46, G12.21, and G14.15 in DMEM with or without serum.

For another experiment, the system named is candida albicans SC5314. Kind of experiment: Percent survival of Candida albicans in phosphate buffer. As to conditions: 37° C., 90 min. incubation. Set-up: dose or concentration left out as unconfirmed. An excerpt: Germ tube formation is essential to Candida toxicity, so agents that prevent this (even in the absence of killing the organism) could have significant activity in vivo.

Molecules are shown by their SMILES. Square brackets hold non-standard residues; d marks the D form. Peptide text beside a SMILES is read from it.

Turning to `CSCC[C@H](NC(=O)[C@H](Cc1ccccc1)NC(=O)[C@@H](CCCNC(=N)N)NC(=O)[C@@H](CCCNC(=N)N)NC(=O)[C@H](CO)NC(=O)[C@@H](NC(=O)[C@@H](CCCNC(=N)N)NC(=O)[C@@H](CCCNC(=N)N)NC(=O)[C@@H](CCCNC(=N)N)NC(=O)[C@@H](CCCNC(=N)N)NC(=O)[C@@H](CCCNC(=N)N)NC(=O)[C@@H](CCCNC(=N)N)NC(=O)[C@H](N)CCCNC(=N)N)C(C)C)C(=O)N[C@H](CCCNC(=N)N)C(=O)N[C@H](CCCNC(=N)N)C(=O)O` [Peptide G11.46, rrrrrrrVSrrFMrr] (H-[dR][dR][dR][dR][dR][dR][dR]VS[dR][dR]FM[dR][dR]-OH; N-terminus and C-terminus assumed), in the experiment on bacteria, the “lysis of bacteria and fungi” value was “lyse both gram negative bacteria and gram negative bacteria, as well as fungi”. In experiment [1], the “killing of antibiotic resistant clinical isolates” value was “killed”. In the experiment with candida albicans SC5314, the “activity against candida albicans SC5314” value was “active”.
